What was measured:
Format in all cases: biochemical
plasma kallikrein = plasma kallikrein (Homo sapiens, UniProt P03952); test: Enzyme selectivity: plasma kallikrein (chromogenic substrate S-2302); conditions: chromogenic substrate S-2302, 37° C.
Procedure: (§1) Determination of Enzyme Selectivity
(§2) Selected compounds were further screened for inhibitory activity against other trypsin-like serine proteases using the appropriate enzyme and chromogenic substrate (Chromogenix AB). The activity against the following human enzymes was tested (substrate in brackets):—plasma kallikrein (S-2302), thrombin (S-2238), plasmin (S-2390) and trypsin (S-2222). The enzyme was incubated at 37° C. with the chromogenic substrate. Residual enzyme activity (initial rate of reaction) was determined by measuring the change in optical absorbance at 405 nm.

thrombin = thrombin (Homo sapiens, UniProt P00734); test: Enzyme selectivity: thrombin (chromogenic substrate S-2238); conditions: chromogenic substrate S-2238, 37° C.
Procedure: as §1, §2

plasmin = plasmin (Homo sapiens, UniProt P00747); test: Enzyme selectivity: plasmin (chromogenic substrate S-2390); conditions: chromogenic substrate S-2390, 37° C.
Procedure: as §1, §2

trypsin = test: Enzyme selectivity: trypsin (chromogenic substrate S-2222); conditions: human enzyme, chromogenic substrate S-2222, 37° C.
Procedure: as §1, §2

Human KLK1 = target: T1, Human KLK1 (Homo sapiens, UniProt P06870); test: Determination of the IC50 for KLK1 (fluorogenic substrate H-DVal-Leu-Arg-AFC); conditions: 37° C.
T1 construct: purchased Callbiochem (Calbiochem)
How it was run: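 IC50 values reflect residual human KLK1 activity, read as initial rate from optical absorbance change at 410 nm. Incubations ran at 37° C with H-DVal-Leu-Arg-AFC as substrate across a compound concentration series.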

Sequence of plasma kallikrein (P03952 20-638): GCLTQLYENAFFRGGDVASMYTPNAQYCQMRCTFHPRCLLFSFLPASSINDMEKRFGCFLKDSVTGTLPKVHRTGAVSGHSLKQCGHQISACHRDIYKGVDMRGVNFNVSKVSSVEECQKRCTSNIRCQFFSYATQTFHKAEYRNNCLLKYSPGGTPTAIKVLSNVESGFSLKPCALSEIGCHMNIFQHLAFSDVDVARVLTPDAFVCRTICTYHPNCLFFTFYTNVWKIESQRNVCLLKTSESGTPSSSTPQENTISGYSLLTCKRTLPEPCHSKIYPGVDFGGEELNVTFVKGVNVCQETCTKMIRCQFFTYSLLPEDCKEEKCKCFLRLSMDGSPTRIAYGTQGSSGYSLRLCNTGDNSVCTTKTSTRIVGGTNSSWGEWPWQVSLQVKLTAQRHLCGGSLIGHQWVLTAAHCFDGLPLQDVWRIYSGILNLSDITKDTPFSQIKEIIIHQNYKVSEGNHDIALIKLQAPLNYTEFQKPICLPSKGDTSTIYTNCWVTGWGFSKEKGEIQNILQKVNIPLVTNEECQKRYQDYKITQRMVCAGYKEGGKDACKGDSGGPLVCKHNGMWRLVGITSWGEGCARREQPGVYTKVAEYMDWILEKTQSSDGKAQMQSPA
T1 sequence (P06870 25-262): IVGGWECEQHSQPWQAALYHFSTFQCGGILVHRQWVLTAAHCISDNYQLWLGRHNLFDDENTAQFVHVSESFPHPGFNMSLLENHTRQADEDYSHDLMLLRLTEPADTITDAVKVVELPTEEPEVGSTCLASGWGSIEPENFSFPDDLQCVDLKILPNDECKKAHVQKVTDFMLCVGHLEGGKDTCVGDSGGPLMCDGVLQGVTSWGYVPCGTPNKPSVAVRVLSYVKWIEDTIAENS
Sequence of plasmin (P00747 581-810 limits assumed): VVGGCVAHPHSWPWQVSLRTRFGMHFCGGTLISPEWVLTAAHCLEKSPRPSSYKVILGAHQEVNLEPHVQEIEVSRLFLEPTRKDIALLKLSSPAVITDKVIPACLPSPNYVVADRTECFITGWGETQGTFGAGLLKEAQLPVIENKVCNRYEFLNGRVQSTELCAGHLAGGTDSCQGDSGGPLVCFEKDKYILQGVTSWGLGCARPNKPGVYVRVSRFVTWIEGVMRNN
Sequence of plasmin (P00747 97-580 partner limits assumed): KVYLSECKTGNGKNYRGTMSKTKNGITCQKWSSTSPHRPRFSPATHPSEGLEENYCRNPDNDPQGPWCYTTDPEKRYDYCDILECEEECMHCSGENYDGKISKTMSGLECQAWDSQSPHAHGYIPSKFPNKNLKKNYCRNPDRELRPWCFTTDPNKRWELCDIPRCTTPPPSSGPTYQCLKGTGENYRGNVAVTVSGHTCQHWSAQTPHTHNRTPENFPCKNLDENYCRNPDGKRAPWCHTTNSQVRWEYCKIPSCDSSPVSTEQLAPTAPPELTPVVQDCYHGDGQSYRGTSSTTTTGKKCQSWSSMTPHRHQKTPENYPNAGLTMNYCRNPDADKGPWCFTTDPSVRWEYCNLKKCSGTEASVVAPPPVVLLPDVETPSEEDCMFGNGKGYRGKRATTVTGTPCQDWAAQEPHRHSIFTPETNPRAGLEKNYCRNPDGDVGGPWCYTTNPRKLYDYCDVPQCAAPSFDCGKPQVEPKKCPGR

| SMILES | IC50 (plasma kallikrein) [nM] | IC50 (thrombin) [nM] | IC50 (plasmin) [nM] | IC50 (trypsin) [nM] | IC50 (Human KLK1) [nM] |
| --- | --- | --- | --- | --- | --- |
| Cc1cc(C)c(C(=O)N[C@@H](Cc2ccc(F)cc2)C(=O)NCc2ccc(N)nc2)[nH]1 [Example 242, 3,5-Dimethyl-1H-pyrrole-2-carboxylic acid [(S)-1-[(6-amino-pyridin-3-ylmethyl)-carbamoyl]-2-(4-fluoro-phenyl)-ethyl]-amide] | > 10000 | > 10000 | > 10000 | > 10000 | 4.4 |
| Cc1cc(C)c(C(=O)N[C@@H](Cc2ccc(Cl)c(Cl)c2)C(=O)NCc2ccc(N)nc2)[nH]1 [Example 233, 3,5-Dimethyl-1H-pyrrole-2-carboxylic acid [(S)-1-[(6-amino-pyridin-3-ylmethyl)-carbamoyl]-2-(3,4-dichloro-phenyl)-ethyl]-amide] | > 10000 | > 10000 | > 10000 | > 10000 | 2.1 |
| CC(C)N(C)[C@@H](C)C(=O)N[C@@H](CC1CCCCC1)C(=O)NCc1ccc(N)nc1 [Example 381, (S)—N-{(S)-1-[(6-Amino-pyridin-3-ylmethyl)-carbamoyl]-2-cyclohexyl-ethyl}-2-(isopropyl-methyl-amino)-propionamide] | > 10000 | > 10000 | > 10000 | > 10000 | 1.1 |
| CCN(CC)[C@@H](C)C(=O)N[C@@H](Cc1ccc(F)c(F)c1)C(=O)NCc1ccc(N)nc1 [Example 355, (S)—N-[(S)-1-[(6-Amino-pyridin-3-ylmethyl)-carbamoyl]-2-(3,4-difluoro-phenyl)-ethyl]-2-diethylamino-propionamide] | > 10000 | > 10000 | > 10000 | > 10000 | 2.5 |
| Cc1cc(C)c(C(=O)N[C@@H](Cc2cccc(Cl)c2)C(=O)NCc2ccc(N)nc2)[nH]1 [Example 235, 3,5-Dimethyl-1H-pyrrole-2-carboxylic acid [(S)-1-[(6-amino-pyridin-3-ylmethyl)-carbamoyl]-2-(3-chloro-phenyl)-ethyl]-amide] | > 10000 | > 10000 | > 10000 | > 10000 | 2.4 |
| CCC(C)[C@H](C(=O)N[C@@H](Cc1ccc(Cl)c(Cl)c1)C(=O)NCc1ccc(N)nc1)N(C)C (stereo partly drawn) [Example 398, (R)-2-Dimethylamino-3-methyl-pentanoic acid [(S)-1-[(6-amino-pyridin-3-ylmethyl)-carbamoyl]-2-(3,4-dichloro-phenyl)-ethyl]-amide] | > 10000 | > 10000 | > 10000 | > 10000 | 0.82 |
| Nc1ccc(CNC(=O)[C@H](Cc2ccc(Cl)c(Cl)c2)NC(=O)[C@H]2CCCN2)cn1 [Example 4, (R)-Pyrrolidine-2-carboxylic acid [(S)-1-[(6-amino-pyridin-3-ylmethyl)-carbamoyl]-2-(3,4-dichloro-phenyl)-ethyl]-amide] | > 10000 | > 10000 | > 10000 | > 10000 | – |
| CN1CCC[C@@H]1C(=O)N(C)[C@@H](Cc1ccccc1)C(=O)NCc1ccc(N)nc1 [Example 225, (R)-1-Methyl-pyrrolidine-2-carboxylic acid {(S)-1-[(6-amino-pyridin-3-ylmethyl)-carbamoyl]-2-phenyl-ethyl}-methyl-amide] | – | – | – | – | 51.1 |
| Cc1cc[nH]c1C(=O)N[C@@H](Cc1cccc(C(F)(F)F)c1)C(=O)NCc1ccc(N)nc1 [Example 271, 3-Methyl-1H-pyrrole-2-carboxylic acid [(S)-1-[(6-amino-pyridin-3-ylmethyl)-carbamoyl]-2-(3-trifluoromethyl-phenyl)-ethyl]-amide] | – | – | – | – | 3.3 |
| COc1ccc2[nH]c(C(=O)N[C@@H](Cc3cccc4ccccc34)C(=O)NCc3ccc(N)nc3C)cc2c1 [Example 304, 5-Methoxy-1H-indole-2-carboxylic acid {(S)-1-[(6-amino-2-methyl-pyridin-3-ylmethyl)-carbamoyl]-2-naphthalen-1-yl-ethyl}-amide] | – | – | – | – | 148 |
| Nc1ccc(CNC(=O)[C@H](Cc2ccc(F)cc2)NC(=O)CN2CCCCC2)cn1 [Example 379, (S)—N-(6-Amino-pyridin-3-ylmethyl)-3-(4-fluoro-phenyl)-2-(2-piperidin-1-yl-acetylamino)-propionamide] | – | – | – | – | 128 |
| Nc1ccc(CNC(=O)[C@H](Cc2ccc(F)cc2)NC(=O)c2nc3ccccc3[nH]2)cn1 [Example 333, 1H-Benzoimidazole-2-carboxylic acid [(S)-1-[(6-amino-pyridin-3-ylmethyl)-carbamoyl]-2-(4-fluoro-phenyl)-ethyl]-amide] | – | – | – | – | 184 |
| CC(C)N1CCC[C@@H]1C(=O)N[C@@H](Cc1c[nH]c2ccccc12)C(=O)NCc1ccc(N)nc1 [Example 130, (R)-1-Isopropyl-pyrrolidine-2-carboxylic acid [(S)-1-[(6-amino-pyridin-3-ylmethyl)-carbamoyl]-2-(1H-indol-3-yl)-ethyl]-amide] | – | – | – | – | 5 |
| CCN(CC)[C@@H](C)C(=O)N[C@@H](Cc1ccc(F)cc1)C(=O)NCc1ccc(N)nc1 [Example 376, (S)—N-[(S)-1-[(6-Amino-pyridin-3-ylmethyl)-carbamoyl]-2-(4-fluoro-phenyl)-ethyl]-2-diethylamino-propionamide] | – | – | – | – | 2.7 |
| Cc1nc(N)ccc1CNC(=O)[C@H](Cc1ccc(F)c(F)c1)NC(=O)[C@H](C)N1CCCCC1 [Example 432, (S)—N-[(S)-1-[(6-Amino-2-methyl-pyridin-3-ylmethyl)-carbamoyl]-2-(3,4-difluoro-phenyl)-ethyl]-2-piperidin-1-yl-propionamide] | – | – | – | – | 17 |
| CCCN(C)[C@@H](C)C(=O)N[C@@H](CC1CCCCC1)C(=O)NCc1ccc(N)nc1 [Example 383, (S)—N-{(S)-1-[(6-Amino-pyridin-3-ylmethyl)-carbamoyl]-2-cyclohexyl-ethyl}-2-(methyl-propyl-amino)-propionamide] | – | – | – | – | 45.9 |
| Nc1ccc(CNC(=O)[C@H](Cc2ccc(F)c(F)c2)NC(=O)CN2CCCC2)cn1 [Example 366, (S)—N-(6-Amino-pyridin-3-ylmethyl)-3-(3,4-difluoro-phenyl)-2-(2-pyrrolidin-1-yl-acetylamino)-propionamide] | – | – | – | – | 54.5 |
| C[C@@H](C(=O)N[C@@H](Cc1ccc(C(F)(F)F)cc1)C(=O)NCc1ccc(N)nc1)N1CCCCC1 [Example 422, (S)—N-[(S)-1-[(6-Amino-pyridin-3-ylmethyl)-carbamoyl]-2-(4-trifluoromethyl-phenyl)-ethyl]-2-piperidin-1-yl-propionamide] | – | – | – | – | 3 |
| CCN1CCC[C@@H]1C(=O)N[C@@H](Cc1cccc(Cl)c1)C(=O)NCc1ccc(N)nc1 [Example 138, (R)-1-Ethyl-pyrrolidine-2-carboxylic acid [(S)-1-[(6-amino-pyridin-3-ylmethyl)-carbamoyl]-2-(3-chloro-phenyl)-ethyl]-amide] | – | – | – | – | 39.8 |
| Cc1c[nH]c(C(=O)N[C@@H](Cc2ccc(F)cc2)C(=O)NCc2ccc(N)nc2)c1 [Example 260, 4-Methyl-1H-pyrrole-2-carboxylic acid [(S)-1-[(6-amino-pyridin-3-ylmethyl)-carbamoyl]-2-(4-fluoro-phenyl)-ethyl]-amide] | – | – | – | – | 150 |
| CCC(C)[C@@H](NC)C(=O)N[C@@H](Cc1ccc(C(C)(C)C)cc1)C(=O)NCc1ccc(N)nc1 (stereo partly drawn) [Example 52, (R)-3-Methyl-2-methylamino-pentanoic acid [(S)-1-[(6-amino-pyridin-3-ylmethyl)-carbamoyl]-2-(4-tert-butyl-phenyl)-ethyl]-amide] | – | – | – | – | 24.5 |
| CC(C)N(C)[C@H](C)C(=O)N[C@@H](Cc1ccc(F)cc1)C(=O)NCc1ccc(N)nc1 [Example 180, (R)—N-[(S)-1-[(6-Amino-pyridin-3-ylmethyl)-carbamoyl]-2-(4-fluoro-phenyl)-ethyl]-2-(isopropyl-methyl-amino)-propionamide] | – | – | – | – | 7.9 |
| Nc1ccc(CNC(=O)[C@H](Cc2ccc(C(F)(F)F)cc2)NC(=O)CN2CCCCC2)cn1 [Example 423, (S)—N-(6-Amino-pyridin-3-ylmethyl)-2-(2-piperidin-1-yl-acetylamino)-3-(4-trifluoromethyl-phenyl)-propionamide] | – | – | – | – | 129 |
| CN[C@H](Cc1ccccc1)C(=O)N[C@@H](Cc1cccc(Cl)c1)C(=O)NCc1ccc(N)nc1 [Example 342, (R)—N-[(S)-1-[(6-Amino-pyridin-3-ylmethyl)-carbamoyl]-2-(3-chloro-phenyl)-ethyl]-2-methylamino-3-phenyl-propionamide] | – | – | – | – | 2.7 |
| Nc1ccc(CNC(=O)[C@H](Cc2ccc(Cl)c(Cl)c2)NC(=O)[C@H](N)CCc2ccccc2)cn1 [Example 67, (R)-2-Amino-N-[(S)-1-[(6-amino-pyridin-3-ylmethyl)-carbamoyl]-2-(3,4-dichloro-phenyl)-ethyl]-4-phenyl-butyramide] | – | – | – | – | 3.1 |
| CCN(CC)[C@H](CO)C(=O)N[C@@H](Cc1ccc(F)c(F)c1)C(=O)NCc1ccc(N)nc1 [Example 363, (R)—N-[(S)-1-[(6-Amino-pyridin-3-ylmethyl)-carbamoyl]-2-(3,4-difluoro-phenyl)-ethyl]-2-diethylamino-3-hydroxy-propionamide] | – | – | – | – | 84.4 |
| CC(C)N(C)[C@@H](CO)C(=O)N[C@@H](Cc1ccc(F)c(F)c1)C(=O)NCc1ccc(N)nc1 [Example 360, (S)—N-[(S)-1-[(6-Amino-pyridin-3-ylmethyl)-carbamoyl]-2-(3,4-difluoro-phenyl)-ethyl]-3-hydroxy-2-(isopropyl-methyl-amino)-propionamide] | – | – | – | – | 20.2 |

— patent US20100076015A1, “Aminopyridine Derivatives” (VANTIA LIMITED, priority 2008, published 2010)
